# Test results as given in paper PMC5962729 (Frontiers in Pharmacology, 2018).
# Where two headings read alike, the source gives them in different places.
# Tests used:
# [1] = Identification of components and metabolites of YCHD in rat plasma, bile, urine and feces (UHPLC/Q-TOF-MS); type: in vivo; conditions: rats, oral YCHD 12 g/kg, urine, feces
# Description: After centrifuging at 4000 rpm for 10 min, supernatant plasma was harvested into heparinized tubes and then stored at -20°C for preservation. The rats in the second group (n = 6) were kept individually in metabolic cages to collect urine and feces. […] Subsequently, the rats were orally administered a single dose of YCHD (12 g/kg of body weight). […] For the third group of rats (n = 6), bile duct intubation was implemented, and blank bile samples were collected before administration. After the administration of YCHD at 12 g/kg of body weight, the drug-containing bile samples were collected.
# Plasma, bile, and urine samples (200 μL each) were separately precipitated with six times of methanol–acetonitrile mixed solution (v/v, 1:1; containing 1% formic acid). After being vortex mixed for 5 min and centrifuged at 15,000 rpm for 5 min at 4°C, the supernatant was separated into another clean tube and dried under a gentle stream of nitrogen at 45°C. Subsequently, the residue was reconstituted in 100 μL of 50% methanol–water (v/v) and then vortex mixed for 10 min. After another round of centrifugation at 15,000 rpm for 5 min at 4°C, 5 μL of the supernatant was analyzed by UHPLC-MS/MS. A 0.5 g sample of naturally dried feces was supplemented with 2 mL of 80% methanol–water (v/v) and then ultrasonically extracted for 30 min at 4°C. After being centrifuged at 15,000 rpm for 10 min, the supernatant was dried under a gentle stream of nitrogen at 45°C. Finally, the residue was reconstituted in 1 mL of 50% methanol–water (v/v) and then vortex mixed for 10 min. After another round of centrifugation at 15,000 rpm for 5 min at 4°C, 5 μL of the supernatant sample was injected into the UHPLC-MS/MS system for analysis.
# Separations were conducted on an Agilent SB-C18 column (2.1 mm × 50 mm, 1.8 μm) of a UHPLC/Q-TOF-MS system (Waters, Corp., Milford, MA, United States) maintained at 40°C.
# A Synapt G2 quadrupole time-of-flight (Q/TOF) MS/MS system (Waters, Corp., Manchester, United Kingdom) equipped with an electrospray ionization (ESI) interface was operated in negative ionization mode and controlled by MassLynx software (Version 4.1). The optimized conditions for maximum detection of metabolites were as follows: the capillary voltage was set at 3.0 kV, extraction cone voltage was set at 10 and 15 V, source temperature was maintained at 120°C, and desolvation temperature was maintained at 450°C. […] An MS^E approach using a dynamic ramp of collision energy was also applied at two (low and high collision energies) scan functions. The following parameters were set: Function 1 (low energy)—mass scan range, 100–1000; scan time, 0.25 s; interscan delay, 0.05 s; collision energy, 4 V. Function 2 (high energy)—mass scan range, 100–1000; scan time, 0.2 s; interscan delay, 0.05 s; collision energy ramp, 10–30 V. Data were acquired using Masslynx^TM (Version 4.1. Waters, Crop., Milford, MA, United States), and Metabolynx^TM (Waters, Crop., Milford, MA, United States) was applied for post-acquisition data processing.
# [2] = Pharmacokinetic study of YCHD components and phase II metabolites in ANIT-induced cholestatic rats (UHPLC-MS/MS, sulfatase enzymolysis); type: in vivo, rat; conditions: for AUC(0-∞) / Ka: Model group (ANIT 50 mg/kg cholestatic rats); for AUC(0-∞) / Ka / AUC(0-∞) reduced by, cholestatic model rats compared with normal rats / Cmax reduced by, cholestatic model rats compared with normal rats / AUC(0-∞) increased by, cholestatic model rats compared with normal rats / Cmax increased by, cholestatic model rats compared with normal rats: single oral YCHD 12 g/kg; for Cmax / Tmax / CL/F / MRT inf / Vd/F / half-life: rat, po, 12 g/kg; for CL/F: read-out: CLz/F; for MRT inf: read-out: MRT (0-∞) (converted); for Vd/F: read-out: Vz/F; for half-life: read-out: t1/2z; for in vivo absorption and excretion processes in cholestatic rats (comparison of Ka and Ke): versus normal rats, oral YCHD 12 g/kg
# Description: To explore the pharmacokinetic properties of YCHD following intragastric administration in rats, a rapid and sensitive method involving the use of UHPLC-MS/MS (Agilent 6460 series, Agilent Technologies, Santa Clara, CA, United States) was developed and validated for the simultaneous quantification of 10 active components of rat plasma. The quantification was conducted in ESI negative ionization mode, and the mass spectrometry conditions were as follows: capillary voltage, 3500 V; gas flow, 12 L/min; nebulizer, 40 psi; gas temperature, 350°C; and delta EMV (-), 400.
# To each 50 μL plasma sample, 10 μL of internal standard solution (paeoniflorin, 1000 ng/mL) and 300 μL of a mixed solution of methanol and acetonitrile (v/v, 1:1; containing 1% formic acid) were added. Subsequently, the solution was vortex mixed for 5 min. After centrifugation at 15,000 rpm for 5 min, the supernatant was transferred completely into a tube, before being evaporated under N2 at 40°C. The residue was then dissolved in 50 μL of 50% methanol–water (v/v, 1:1) through vortexing for 5 min, after centrifugation at 15,000 rpm for 10 min. Finally, 5 μL of the supernatant sample was injected into the UHPLC-MS/MS system for analysis.
# The rats were randomly divided into two groups (n = 5 for each group). […] The blood samples were centrifuged at 4000 rpm for 10 min, and the supernatant plasma was harvested. Plasma samples (50 μL) were immediately processed as outlined in Section “Chromatographic and Mass Spectrometry Conditions.”
# Additional plasma samples (50 μL) were enzymatically hydrolyzed with 50 μL of enzyme solution (65.86 mg of sulfatase, dissolved in 2 mL of sodium acetate buffer, pH 5.0) for phase II metabolite quantification, in accordance with our previous study ([Ding et al., 2012]). After being vortex mixed for 5 min, the mixture was incubated at 37°C for 30 min and then returned to room temperature. Subsequently, the samples were processed as outlined in Section “Chromatographic and Mass Spectrometry Conditions” for UHPLC-MS/MS analysis. During routine analysis, each analytical run included six blank plasma samples, a set of calibration samples, a set of QC samples, and unknowns.
# All data are presented as mean ± SD. A one-way analysis of variance was used to compare data between two groups using SPSS (Version 21.0). The differences were considered to be statistically significant when p < 0.05 and highly significant when p < 0.01 or p < 0.001. Pharmacokinetic data analysis was performed using DAS 2.1.1 software (Mathematical Pharmacology Professional Committee of China, Shanghai, China).
# The specific contents of the phase II metabolites of these components were detected indirectly by evaluating the content difference of their prototypes in samples after enzymolysis and before enzymolysis
# CG = Ca −[MG × (CGG/MGG + CGe/MGe)]
# Ca, CGG, and CGe represent the concentration of genipin, genipin-1-β-D-gentiobioside, and geniposide after enzymolysis of sulfatase, respectively. MG, MGG-, and MGe represent the mass of genipin, genipin-1-β-D-gentiobioside, and geniposide, respectively.
Structure (SMILES),Source (biological samples in which the compound was identified) [1],AUC(0-∞) ([2]; plasma) [µg·min/L],Ka ([2]; plasma) [min⁻¹],Cmax ([2]; plasma) [ng/mL],Tmax ([2]; plasma) [min],CL/F ([2]; plasma) [mL/min/kg],MRT inf ([2]; plasma) [h],Vd/F ([2]; plasma) [L/kg],half-life ([2]; plasma) [min],"AUC(0-∞) reduced by, cholestatic model rats compared with normal rats [2] [%]","Cmax reduced by, cholestatic model rats compared with normal rats [2] [%]",in vivo absorption and excretion processes in cholestatic rats (comparison of Ka and Ke) [2],Vd/F ([2]; in vivo) [L/kg],half-life ([2]; in vivo) [min],"AUC(0-∞) increased by, cholestatic model rats compared with normal rats [2] [%]","Cmax increased by, cholestatic model rats compared with normal rats [2] [%]","Vd/F ([2]; Sprague Dawley, plasma) [L/kg]","half-life ([2]; Sprague Dawley, plasma) [min]",also measured
"CC(=O)c1ccc(O)cc1 [4-hydroxyacetophenone, 4-Hydroxyacetophenone]","Plasma, bile, urine, feces",113028.5 ± 56412.0,202.7 ± 235.9,676 ± 85,15,215 ± 37,18.6,429 ± 287,1560 ± 1260,41.2,57.2,inhibited,–,–,–,–,–,–,–
COC(=O)C1=CO[C@@H](O[C@@H]2O[C@H](CO)[C@@H](O)[C@H](O)[C@H]2O)[C@@H]2C(CO)=CC[C@H]12 [Geniposide],"Plasma, bile, urine, feces",956445.5 ± 420665.9,1543.0 ± 592.8,–,–,–,–,–,–,–,–,significantly enhanced,22.4 ± 7.5,339 ± 28,148.9,10.2,–,–,Cmax ([2]; in vivo): 578 ± 59.6 ng/mL; Tmax ([2]; in vivo): 27 min; CL/F ([2]; in vivo): 45 ± 12 mL/min/kg; MRT inf ([2]; in vivo): 7.5 h
O=C(O)C1=CO[C@@H](O[C@@H]2O[C@H](CO)[C@@H](O)[C@H](O)[C@H]2O)[C@@H]2C(CO)=CC[C@H]12 [Geniposidic acid],"Plasma, urine, feces",3007701.6 ± 1408367.9,41280.6 ± 37036.2,1690 ± 251,240,–,9.5,–,–,–,–,significantly enhanced,–,–,85.5,153.7,4990 ± 1180,314 ± 86.2,–
O=C(O)c1cc(O)c2c(c1)C(=O)c1cccc(O)c1C2=O [Rhein],"Plasma, bile, urine, feces",172453.1 ± 108249.8,478.1 ± 200.1,422 ± 87.5,15,221 ± 84,2.83,41.4 ± 20.8,131 ± 48.7,80.9,86.1,inhibited,–,–,–,–,–,–,–
COC(=O)C1=COC(OC2OC(CO)C(O)C(O)C2O)C2C(CO)=CC(O)C12 (stereo not drawn) [Scandoside methyl ester],"Plasma, bile, urine, feces",300942.4 ± 177466.0,22.6 ± 38.8,–,–,–,–,–,–,–,26.3,inhibited,95.6 ± 26.6,688 ± 197,–,–,–,–,"Cmax ([2]; Sprague Dawley, in vivo): 93.8 ± 13.7 ng/mL; Tmax ([2]; Sprague Dawley, in vivo): 264 min; CL/F ([2]; Sprague Dawley, in vivo): 98 ± 16 mL/min/kg; MRT inf ([2]; Sprague Dawley, in vivo): 16.7 h"
"COC(=O)C1=CO[C@@H](O[C@@H]2O[C@H](CO[C@@H]3O[C@H](CO)[C@@H](O)[C@H](O)[C@H]3O)[C@@H](O)[C@H](O)[C@H]2O)[C@@H]2C(CO)=CC[C@H]12 [genipin-1-β-D-gentiobiodide, Genipin-1-β-D-gentiobiodide]","Bile, urine",31749.4 ± 15408.0,106.8 ± 25.5,63.9 ± 10.1,15,1260 ± 165,3.14,–,–,17.7,39.5,–,–,–,–,–,280 ± 254,168 ± 181,–
